# pIC50: −log10 of the molar value.
# Target: Cav3.2 (Homo sapiens, UniProt O95180)
# Experiment: Calcium flux FLIPR assay, HEK293 cells recombinantly expressing Cav3.2
# Format: cell-based
# Settings: Cav3.2-channel, Ca2+ entry stimulated by 10 mM CaCl2
# Procedure, shortened: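 Fluo-4-loaded HEK293 cells stably expressing Cav3.2, seeded overnight at 37 °C; compounds diluted in TEAC buffer (pH 7.2) and preincubated 3 min before Ca2+ entry triggered with CaCl2 at 10 mM final. Area under FLIPR fluorescence trace fitted sigmoidally; IC50 relative to vehicle signal.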
# Sequence of Cav3.2 (O95180 whole entry, looked up): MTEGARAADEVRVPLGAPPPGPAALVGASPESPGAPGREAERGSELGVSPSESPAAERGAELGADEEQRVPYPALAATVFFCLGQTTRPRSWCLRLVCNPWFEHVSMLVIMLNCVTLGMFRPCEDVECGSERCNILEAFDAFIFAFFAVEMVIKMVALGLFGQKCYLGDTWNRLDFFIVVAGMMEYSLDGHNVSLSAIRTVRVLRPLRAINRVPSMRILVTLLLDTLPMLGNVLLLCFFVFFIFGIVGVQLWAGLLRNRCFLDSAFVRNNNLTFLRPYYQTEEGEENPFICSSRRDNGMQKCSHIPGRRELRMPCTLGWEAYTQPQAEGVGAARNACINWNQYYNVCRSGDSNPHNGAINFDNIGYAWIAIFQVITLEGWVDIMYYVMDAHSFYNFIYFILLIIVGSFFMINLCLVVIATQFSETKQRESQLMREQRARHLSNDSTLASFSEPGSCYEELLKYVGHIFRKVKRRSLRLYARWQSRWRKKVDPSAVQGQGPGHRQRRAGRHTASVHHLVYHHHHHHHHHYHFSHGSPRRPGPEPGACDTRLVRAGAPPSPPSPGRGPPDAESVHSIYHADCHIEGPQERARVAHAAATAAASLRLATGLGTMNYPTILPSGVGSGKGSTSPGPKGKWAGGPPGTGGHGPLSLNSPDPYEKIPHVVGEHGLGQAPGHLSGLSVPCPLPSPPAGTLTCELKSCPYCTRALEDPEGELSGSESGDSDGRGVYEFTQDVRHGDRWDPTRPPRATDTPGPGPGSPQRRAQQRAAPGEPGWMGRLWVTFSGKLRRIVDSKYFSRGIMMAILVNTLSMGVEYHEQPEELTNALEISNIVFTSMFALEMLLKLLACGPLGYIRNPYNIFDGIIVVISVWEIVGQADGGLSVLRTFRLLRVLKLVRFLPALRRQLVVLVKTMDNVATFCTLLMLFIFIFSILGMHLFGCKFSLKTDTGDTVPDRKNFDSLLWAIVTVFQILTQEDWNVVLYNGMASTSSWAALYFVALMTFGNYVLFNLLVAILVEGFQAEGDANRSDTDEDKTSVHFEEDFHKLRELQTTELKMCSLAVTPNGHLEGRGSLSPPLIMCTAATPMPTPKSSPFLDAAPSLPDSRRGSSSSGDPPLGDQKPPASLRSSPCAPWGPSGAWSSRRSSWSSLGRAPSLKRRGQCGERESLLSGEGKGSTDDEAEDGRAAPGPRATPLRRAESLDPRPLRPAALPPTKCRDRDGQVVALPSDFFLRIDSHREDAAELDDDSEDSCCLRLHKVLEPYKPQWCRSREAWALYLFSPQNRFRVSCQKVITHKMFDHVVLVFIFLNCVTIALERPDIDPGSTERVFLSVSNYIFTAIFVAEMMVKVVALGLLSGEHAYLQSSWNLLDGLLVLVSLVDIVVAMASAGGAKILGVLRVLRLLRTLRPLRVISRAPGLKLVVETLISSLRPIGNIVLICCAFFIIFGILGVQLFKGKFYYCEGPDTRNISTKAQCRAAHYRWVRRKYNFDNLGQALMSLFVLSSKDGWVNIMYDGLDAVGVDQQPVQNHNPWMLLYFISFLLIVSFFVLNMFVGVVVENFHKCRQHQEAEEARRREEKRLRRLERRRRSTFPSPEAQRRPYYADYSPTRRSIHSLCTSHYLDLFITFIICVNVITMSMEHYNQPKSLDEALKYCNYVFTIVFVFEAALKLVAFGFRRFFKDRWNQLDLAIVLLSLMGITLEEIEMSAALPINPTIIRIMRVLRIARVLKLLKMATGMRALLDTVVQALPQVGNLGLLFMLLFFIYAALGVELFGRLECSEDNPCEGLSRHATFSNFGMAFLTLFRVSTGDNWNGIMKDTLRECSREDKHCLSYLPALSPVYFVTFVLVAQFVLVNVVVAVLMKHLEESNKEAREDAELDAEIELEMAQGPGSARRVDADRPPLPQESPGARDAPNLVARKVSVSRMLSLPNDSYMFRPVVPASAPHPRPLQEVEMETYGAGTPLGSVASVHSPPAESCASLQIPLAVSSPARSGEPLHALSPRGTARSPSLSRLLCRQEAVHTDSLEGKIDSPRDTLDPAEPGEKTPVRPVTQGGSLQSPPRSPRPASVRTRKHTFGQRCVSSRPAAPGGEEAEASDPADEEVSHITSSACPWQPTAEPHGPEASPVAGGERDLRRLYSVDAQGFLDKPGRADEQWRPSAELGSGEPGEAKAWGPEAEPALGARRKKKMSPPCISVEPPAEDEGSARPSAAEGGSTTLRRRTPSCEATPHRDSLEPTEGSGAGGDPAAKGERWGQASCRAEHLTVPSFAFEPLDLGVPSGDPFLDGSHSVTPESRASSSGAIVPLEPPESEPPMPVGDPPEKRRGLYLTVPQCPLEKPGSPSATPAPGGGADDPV
row,SMILES,pIC50
1,"Cc1cc(Cn2ncc(NC(=O)Cc3ccc4c(c3)c(C)nn4C)n2)ccc1C#N [Example 169, N-[2-(4-Cyano-3-methyl-benzyl)-2H-[1,2,3]triazol-4-yl]-2-(1,3-dimethyl-1H-indazol-5-yl)-acetamide]",7.02
2,"CCn1ncc2cc(CC(=O)Nc3cnn(Cc4ccc(F)c(OC)c4)n3)ccc21 [Example 117, 2-(1-Ethyl-1H-indazol-5-yl)-N-[2-(4-fluoro-3-methoxy-benzyl)-2H-[1,2,3]triazol-4-yl]-acetamide]",7.10
3,"COC1(c2ccc(CC(=O)Nc3cnn(Cc4ccc(C)c(C#N)c4)n3)cc2)COC1 [Example 206, N-[2-(3-Cyano-4-methyl-benzyl)-2H-[1,2,3]triazol-4-yl]-2-[4-(3-methoxy-oxetan-3-yl)-phenyl]-acetamide]",6.05
4,"CC(C)n1ncc2cc(CC(=O)Nc3cnn(Cc4ccc(F)c(F)c4)n3)ccc21 [Example 33, N-[2-(3,4-Difluoro-benzyl)-2H-[1,2,3]triazol-4-yl]-2-(1-isopropyl-1H-indazol-5-yl)-acetamide]",7.62
5,"Cn1ccc2cc(CC(=O)Nc3cnn(Cc4ccc(C#N)cc4)n3)ccc21 [Example 99, N-[2-(4-Cyano-benzyl)-2H-[1,2,3]triazol-4-yl]-2-(1-methyl-1H-indol-5-yl)-acetamide]",7.72
6,"COc1ccc(Cn2ncc(NC(=O)Cc3ccc(C(C)C)cc3)n2)cc1OC [Example 50, N-[2-(3,4-Dimethoxy-benzyl)-2H-[1,2,3]triazol-4-yl]-2-(4-isopropyl-phenyl)-acetamide]",6.80
7,"COc1ccc(Cn2ncc(NC(=O)Cc3ccc(OCC4(C)COC4)cc3)n2)cc1F [Example 123, N-[2-(3-Fluoro-4-methoxy-benzyl)-2H-[1,2,3]triazol-4-yl]-2-[4-(3-methyl-oxetan-3-ylmethoxy)-phenyl]-acetamide]",6.06
8,"CC(C)(C)c1ccc(CC(=O)Nc2cnn(Cc3ccc(C#N)cc3)n2)cc1 [Example 96, 2-(4-tert-Butyl-phenyl)-N-[2-(4-cyano-benzyl)-2H-[1,2,3]triazol-4-yl]-acetamide]",7.36
9,"O=C(Cc1ccc(OC2CC2)cc1)Nc1cnn(Cc2ccc(F)c(F)c2)n1 [Example 10, 2-(4-Cyclopropoxy-phenyl)-N-[2-(3,4-difluoro-benzyl)-2H-[1,2,3]triazol-4-yl]-acetamide]",7.64
10,"N#Cc1ccc(Cn2ncc(NC(=O)Cc3ccc(OCC4(F)COC4)cc3)n2)cc1F [Example 175, N-[2-(4-Cyano-3-fluoro-benzyl)-2H-[1,2,3]triazol-4-yl]-2-[4-(3-fluoro-oxetan-3-ylmethoxy)-phenyl]-acetamide]",7.00
11,"COc1cc(Cn2ncc(NC(=O)Cc3ccc4c(cnn4C)c3)n2)ccc1F [Example 151, N-[2-(4-Fluoro-3-methoxy-benzyl)-2H-[1,2,3]triazol-4-yl]-2-(1-methyl-1H-indazol-5-yl)-acetamide]",7.14
12,"CC(C)c1ccc(CC(=O)Nc2cnn(Cc3ccc(OC(F)F)c(F)c3)n2)cc1 [Example 180, N-[2-(4-Difluoromethoxy-3-fluoro-benzyl)-2H-[1,2,3]triazol-4-yl]-2-(4-isopropyl-phenyl)-acetamide]",7.37
13,"Cc1ccc(Cn2ncc(NC(=O)Cc3ccc(N4CCC(F)(F)C4)nc3)n2)cc1C#N [Example 211, N-[2-(3-Cyano-4-methyl-benzyl)-2H-[1,2,3]triazol-4-yl]-2-[6-(3,3-difluoro-pyrrolidin-1-yl)-pyridin-3-yl]-acetamide]",7.09
14,"Cn1ncc2ccc(CC(=O)Nc3cnn(Cc4ccc(C#N)cc4)n3)cc21 [Example 101, N-[2-(4-Cyano-benzyl)-2H-[1,2,3]triazol-4-yl]-2-(1-methyl-1H-indazol-6-yl)-acetamide]",6.32
15,"Cc1cc(CC(=O)Nc2cnn(Cc3ccc(C#N)cn3)n2)ccc1OCC(F)(F)F [Example 242, N-[2-(5-Cyano-pyridin-2-ylmethyl)-2H-[1,2,3]triazol-4-yl]-2-[3-methyl-4-(2,2,2-trifluoro-ethoxy)-phenyl]-acetamide]",7.27

# Source: patent publication US10246426B2, “Triazole compounds as T-type calcium channel blockers” (IDORSIA PHARMACEUTICALS LTD, priority 2014, dated 2019)
